Measured values from patent US20060069132A1, “Azolecarboxamide herbicides” (priority 2004, published 2006).

Columns and labels:
ducksalad [1] = test: Test B flooded paddy test; format: in vivo, Heteranthera limosa; conditions: 1000 g ai/ha, scale 0 to 100 (0 no effect, 100 complete control)
Summary of the method: (§1)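 Paddy species grown to the 2-leaf stage under flooding; blackgrass sprayed postemergence at 2–18 cm (1- to 4-leaf stage). Plants kept in a greenhouse for 13 to 15 days, then visually rated against controls on 0 (no effect) to 100 (complete control).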

ducksalad [2] = test: Test C flooded paddy test; format: in vivo, Heteranthera limosa
[3] = system: smallflower umbrella sedge; test: Test C flooded paddy test; format: in vivo, Cyperus difformis
giant foxtail = test: Test A pre-/postemergence herbicide test; format: in vivo, Setaria faberi
Summary of the method: (§2)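 Sandy loam soil given preemergence directed spray; plants at 2 to 10 cm, one- to two-leaf stage, sprayed to runoff postemergence, compounds in non-phytotoxic solvent with surfactant. Injury rated visually versus untreated controls after about ten greenhouse days, 0 (no effect) to 100 (complete control); dash means not tested.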

barnyardgrass [4] = test: Test B flooded paddy test; format: in vivo, Echinochloa crus-galli; conditions: 1000 g ai/ha, scale 0 to 100 (0 no effect, 100 complete control)
Summary of the method: as §1

barnyardgrass [5] = test: Test C flooded paddy test; format: in vivo, Echinochloa crus-galli
Summary of the method: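 Plants were grown to the 1- to 4-leaf stage (2–18 cm) and then treated postemergence, or grown to the 2-leaf stage for the flooded paddy test. They were held in a greenhouse for 12 to 14 days and then scored by eye against controls, where 0 is no effect and 100 is complete control.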

morningglory = test: Test A pre-/postemergence herbicide test; format: in vivo, Ipomoea spp.
Summary of the method: as §2

[6] = system: small flower umbrella sedge; test: Test B flooded paddy test; format: in vivo, Cyperus difformis; conditions: 1000 g ai/ha, scale 0 to 100 (0 no effect, 100 complete control)
Summary of the method: as §1

rice [7] = test: Test B flooded paddy test; format: in vivo, Oryza sativa; conditions: 1000 g ai/ha, scale 0 to 100 (0 no effect, 100 complete control)
Summary of the method: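 Postemergence plants were sprayed with formulated test chemicals at 2 to 18 cm height (1- to 4-leaf stage); paddy species were grown to the 2-leaf stage. After 13 to 15 days in a greenhouse, injury was rated visually against untreated controls on a 0–100 scale (0 = no effect, 100 = complete control).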

redroot pigweed = test: Test A pre-/postemergence herbicide test; format: in vivo, Amaranthus retroflexus
Summary of the method: as §2

large crabgrass = test: Test A pre-/postemergence herbicide test; format: in vivo, Digitaria sanguinalis
Summary of the method: as §2

rice [8] = test: Test C flooded paddy test; format: in vivo, Oryza sativa
Summary of the method: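 Postemergence sprays applied to plants 2 to 18 cm tall (1- to 4-leaf stage); paddy species grown to 2-leaf stage under flooding. After 12 to 14 days in greenhouse, visual rating versus untreated controls on 0–100 scale (0 no effect, 100 complete control).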

velvetleaf = test: Test A pre-/postemergence herbicide test; format: in vivo, Abutilon theophrasti
Summary of the method: as §2

barnyardgrass [9] = test: Test A pre-/postemergence herbicide test; format: in vivo, Echinochloa crus-galli
Summary of the method: as §2

[10] = 125 g ai/ha, scale 0 to 100 (0 no effect, 100 complete control)
[11] = 250 g ai/ha, scale of 0 to 100, 0 is no effect, 100 is complete control
[12] = 500 g ai/ha, visual rating after 12 to 14 days, scale 0 to 100 (0 no effect, 100 complete control)
[13] = Postemergence, 500 g ai/ha, 0 to 100 scale, 0 no effect, 100 complete control
[14] = Postemergence, 2000 g ai/ha, 0 to 100 scale, 0 no effect, 100 complete control
[15] = Preemergence, 2000 g ai/ha, visual rating, 0 to 100 scale (0 no effect, 100 complete control)
[16] = preemergence, 500 g ai/ha, visual injury, 0 to 100 scale (0 no effect, 100 complete control)

CCOC(=O)c1cncc(NC(=O)c2cc(C(C)(C)C)nn2CC)c1 [Compound 255]
Ducksalad plant response rating (ducksalad [1]): 80 | Ducksalad plant response rating (ducksalad [2]; 62 g ai/ha, scale 0 to 100): 0 | Ducksalad plant response rating (ducksalad [2]; [10]): 10 | Ducksalad plant response rating (ducksalad [2]; [11]): 35 | Plant response rating, Ducksalad (ducksalad [2]; [12]): 40 | Sedge, Umbrella plant response rating ([3]; 62 g ai/ha, scale 0 to 100): 0 | Sedge, Umbrella plant response rating [3, 10]: 20 | Sedge, Umbrella plant response rating [3, 11]: 35 | Plant response rating, Sedge, Umbrella [3, 12]: 45 | Foxtail, Giant plant response rating (giant foxtail; [13]): 30 | Plant response rating, Foxtail, Giant (giant foxtail; [14]): 55 | Foxtail, Giant plant response rating (giant foxtail; [15]): 60 | Foxtail, Giant plant response rating (giant foxtail; [16]): 45 | Barnyardgrass plant response rating (barnyardgrass [4]): 70 | Barnyardgrass plant response rating (barnyardgrass [5]; 62 g ai/ha, scale 0 to 100 (0 no effect, 100 complete control)): 0 | Barnyardgrass plant response rating (barnyardgrass [5]; [10]): 10 | Barnyardgrass plant response rating (barnyardgrass [5]; [11]): 25 | Plant response rating, Barnyardgrass (barnyardgrass [5]; [12]): 35 | Morningglory plant response rating (morningglory; [13]): 10 | Plant response rating, Morningglory (morningglory; [14]): 25 | Morningglory plant response rating (morningglory; [15]): 70 | Morningglory plant response rating (morningglory; [16]): 30 | Sedge, Umbrella plant response rating [6]: 80 | Rice plant response rating (rice [7]): 70 | Pigweed plant response rating (redroot pigweed; [13]): 70 | Plant response rating, Pigweed (redroot pigweed; [14]): 100 | Pigweed plant response rating (redroot pigweed; [15]): 100 | Pigweed plant response rating (redroot pigweed; [16]): 90 | Crabgrass, Large plant response rating (large crabgrass; [13]): 20 | Plant response rating, Crabgrass, Large (large crabgrass; [14]): 40 | Crabgrass, Large plant response rating (large crabgrass; [15]): 55 | Crabgrass, Large plant response rating (large crabgrass; [16]): 35 | Rice plant response rating (rice [8]; 62 g ai/ha, scale 0 to 100): 0 | Rice plant response rating (rice [8]; [10]): 0 | Rice plant response rating (rice [8]; [11]): 45 | Plant response rating, Rice (rice [8]; [12]): 50 | Velvetleaf plant response rating (velvetleaf; [13]): 35 | Plant response rating, Velvetleaf (velvetleaf; [14]): 50 | Velvetleaf plant response rating (velvetleaf; [15]): 50 | Velvetleaf plant response rating (velvetleaf; [16]): 30 | Barnyardgrass plant response rating (barnyardgrass [9]; [13]): 40 | Plant response rating, Barnyardgrass (barnyardgrass [9]; [14]): 70 | Barnyardgrass plant response rating (barnyardgrass [9]; [15]): 75 | Barnyardgrass plant response rating (barnyardgrass [9]; [16]): 55
